Source: patent US9067871B2, “Aminotetraline derivatives, pharmaceutical compositions containing them, and their use in therapy” (ABBVIE DEUTSCHLAND GMBH & CO KG, priority 2009, dated 2015)
Structures can show the parent of a compound that is named as a salt. Where two headings read alike, the source gives them in different places.

Key:
human GlyT1c = human GlyT1c (Homo sapiens (Human), UniProt P48067); test: [3H]-Glycine uptake into recombinant CHO cells expressing human GlyT1; format: cell-based
Procedure: 1. [^3H]-Glycine uptake into recombinant CHO cells expressing human GlyT1: Human GlyT1c expressing recombinant hGlyT1c—5_CHO cells were plated at 20,000 cells per well in 96 well Cytostar-T scintillation microplates (Amersham Biosciences) and cultured to sub-confluency for 24 h. […] 80 μl HBSS buffer were added, followed by 10 μl inhibitor or vehicle (10% DMSO) and 10 μl [^3H]-glycine (TRK71, Amersham Biosciences) to a final concentration of 200 nM for initiation of glycine uptake. The plates were placed in a Wallac Microbeta (PerkinElmer) and continuously counted by solid phase scintillation spectrometry during up to 3 hours. Nonspecific uptake was determined in the presence of 10 μM Org24598.

human GlyT1c transporter = human GlyT1c transporter (Homo sapiens (Human), UniProt P48067); test: Radioligand binding assay using recombinant CHO cell membranes expressing human GlyT1; conditions: read-out: radioligand binding Kiapp
From the text: 2. Radioligand binding assays using recombinant CHO cell membranes expressing human GlyT1: […]

[1] = hGlyT1c_5_CHO cells, 200 nM [3H]-glycine
[2] = human GlyT1c-expressing CHO cell membranes

Chain of human GlyT1c (P48067 whole entry): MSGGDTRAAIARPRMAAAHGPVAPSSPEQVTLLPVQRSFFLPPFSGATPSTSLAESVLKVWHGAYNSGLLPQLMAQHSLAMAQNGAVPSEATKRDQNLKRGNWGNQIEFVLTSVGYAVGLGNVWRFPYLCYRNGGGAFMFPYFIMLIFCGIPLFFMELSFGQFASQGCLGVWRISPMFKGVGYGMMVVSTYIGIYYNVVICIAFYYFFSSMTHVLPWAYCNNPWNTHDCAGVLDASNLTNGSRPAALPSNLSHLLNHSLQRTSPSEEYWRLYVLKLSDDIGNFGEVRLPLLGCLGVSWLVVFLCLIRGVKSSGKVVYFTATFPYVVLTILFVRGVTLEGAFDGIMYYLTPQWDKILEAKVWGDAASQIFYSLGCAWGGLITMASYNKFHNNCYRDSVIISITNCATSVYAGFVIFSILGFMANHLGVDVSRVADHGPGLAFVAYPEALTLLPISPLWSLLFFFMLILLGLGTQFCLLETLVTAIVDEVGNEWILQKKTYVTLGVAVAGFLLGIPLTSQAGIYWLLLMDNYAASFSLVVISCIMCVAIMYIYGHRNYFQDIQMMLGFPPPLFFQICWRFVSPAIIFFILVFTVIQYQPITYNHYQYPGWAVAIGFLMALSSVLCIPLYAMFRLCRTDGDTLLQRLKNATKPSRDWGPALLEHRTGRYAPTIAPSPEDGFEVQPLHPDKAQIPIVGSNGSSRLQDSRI
Chain of human GlyT1c transporter (P48067 whole entry): as above

CCOC(=O)NC1CCc2ccc(OCCNS(=O)(=O)CCCF)cc2C1Cc1ccc(Cl)c(Cl)c1 (stereo not shown) [Example 22, {1-(3,4-Dichloro-benzyl)-7-[2-(3-fluoro-propane-1-sulfonylamino)-ethoxy]-1,2,3,4-tetrahydro-naphthalen-2-yl}-carbamic acid ethyl ester]
IC50 (human GlyT1c; [1]): ≤ 1000 µM | Ki (human GlyT1c transporter; [2]): ≤ 10 µM

CCNC1CCc2ccc(OCCNS(=O)(=O)c3cn(C)cn3)cc2C1Cc1ccc(Cl)c(Cl)c1 (stereo not shown) [Example 23, 1-Methyl-1H-imidazole-4-sulfonic acid {2-[8-(3,4-dichloro-benzyl)-7-ethylamino-5,6,7,8-tetrahydro-naphthalen-2-yloxy]-ethyl}-amide]
IC50 (human GlyT1c; [1]): ≤ 100 µM | Ki (human GlyT1c transporter; [2]): ≤ 10 µM

Cc1csc(S(=O)(=O)NCCOc2ccc3c(c2)C(Cc2ccc(Cl)c(Cl)c2)C(N)CC3)c1 (stereo not shown) [Example 24, 4-Methyl-thiophene-2-sulfonic acid {2-[7-amino-8-(3,4-dichloro-benzyl)-5,6,7,8-tetrahydronaphthalen-2-yloxy]-ethyl}-amide hydrochloride]
IC50 (human GlyT1c): ≤ 10 µM | Ki (human GlyT1c transporter): ≤ 0.1 µM

CN(C)S(=O)(=O)NCCOc1ccc2c(c1)C(Cc1ccc(Cl)c(Cl)c1)C(N)CC2 (stereo not shown) [Example 25, N′-(2-{[7-amino-8-(3,4-dichlorobenzyl)-5,6,7,8-tetrahydronaphthalen-2-yl]oxy}ethyl)-N,N-dimethylsulfuric diamide hydrochloride]
IC50 (human GlyT1c; [1]): ≤ 1 µM | Ki (human GlyT1c transporter; [2]): ≤ 0.1 µM

CCOC(=O)NC1CCc2ccc(OCCNS(=O)(=O)CCC(F)(F)F)cc2C1Cc1ccc(Cl)c(Cl)c1 (stereo not shown) [Example 26, {1-(3,4-Dichloro-benzyl)-7-[2-(3,3,3-trifluoro-propane-1-sulfonylamino)-ethoxy]-1,2,3,4-tetrahydro-naphthalen-2-yl}-carbamic acid ethyl ester]
IC50 (human GlyT1c; [1]): ≤ 1000 µM | Ki (human GlyT1c transporter; [2]): ≤ 10 µM

Cn1cnc(S(=O)(=O)NCCOc2ccc3c(c2)C(Cc2ccc(Cl)cc2)C(N)CC3)c1 (stereo not shown) [Example 27, 1-Methyl-1H-imidazole-4-sulfonic acid {2-[7-amino-8-(4-chloro-benzyl)-5,6,7,8-tetrahydronaphthalen-2-yloxy]-ethyl}-amide hydrochloride]
IC50 (human GlyT1c; [1]): ≤ 0.01 µM | Ki (human GlyT1c transporter; [2]): ≤ 0.01 µM

Cn1cc(S(=O)(=O)NCCOc2ccc3c(c2)C(Cc2ccc(Cl)cc2)C(N)CC3)cn1 (stereo not shown) [Example 28, 1-Methyl-1H-pyrazole-4-sulfonic acid {2-[7-amino-8-(4-chloro-benzyl)-5,6,7,8-tetrahydronaphthalen-2-yloxy]-ethyl}-amide hydrochloride]
IC50 (human GlyT1c; [1]): ≤ 0.01 µM | Ki (human GlyT1c transporter; [2]): ≤ 0.01 µM

N#Cc1ccc2c(c1)C(Cc1ccc(Cl)c(Cl)c1)C(N)CC2 (stereo not shown) [Example 29, 7-Amino-8-(3,4-dichlorobenzyl)-5,6,7,8-tetrahydronaphthalene-2-carbonitrile trifluoroacetate]
IC50 (human GlyT1c; [1]): ≤ 100 µM | Ki (human GlyT1c transporter; [2]): ≤ 10 µM

N#Cc1ccc2c(c1)C(Cc1ccc(Cl)cc1)C(N)CC2 (stereo not shown) [Example 30, 7-Amino-8-(4-chlorobenzyl)-5,6,7,8-tetrahydronaphthalene-2-carbonitrile hydrochloride]
IC50 (human GlyT1c; [1]): ≤ 100 µM | Ki (human GlyT1c transporter; [2]): ≤ 100 µM

CCOC(=O)NC1CCc2ccc(C#N)cc2C1Cc1ccc(Cl)c(Cl)c1 (stereo not shown) [Example 32, Ethyl [7-cyano-1-(3,4-dichlorobenzyl)-1,2,3,4-tetrahydronaphthalen-2-yl]carbamate]
IC50 (human GlyT1c; [1]): ≤ 100 µM | Ki (human GlyT1c transporter; [2]): ≤ 10 µM

NC1CCc2ccc(OCCN3CCCS3(=O)=O)cc2C1Cc1cccc(Cl)c1 (stereo not shown) [Example 33, 1-(3-chlorobenzyl)-7-[2-(1,1-dioxidoisothiazolidin-2-yl)ethoxy]-1,2,3,4-tetrahydronaphthalen-2-amine hydrochloride]
IC50 (human GlyT1c; [1]): ≤ 1 µM | Ki (human GlyT1c transporter; [2]): ≤ 1 µM

CC(C)(C)OC(=O)NC1CCc2ccc(C#N)cc2C1Cc1ccc(Cl)c(Cl)c1 (stereo not shown) [Example 34, tert-Butyl[7-cyano-1-(3,4-dichlorobenzyl)-1,2,3,4-tetrahydronaphthalen-2-yl]carbamate]
IC50 (human GlyT1c; [1]): ≤ 1000 µM | Ki (human GlyT1c transporter; [2]): ≤ 10 µM

NC1CCc2ccc(O)cc2C1Cc1ccc(Cl)c(Cl)c1 (stereo not shown) [Example 35, 7-Amino-8-(3,4-dichlorobenzyl)-5,6,7,8-tetrahydronaphthalen-2-ol trifluoroacetate (salt)]
IC50 (human GlyT1c; [1]): ≤ 100 µM | Ki (human GlyT1c transporter; [2]): ≥ 100 µM

NC1CCc2ccc(OC(F)F)cc2C1Cc1ccc(Cl)cc1 (stereo not shown) [Example 36, 1-(4-chlorobenzyl)-7-(difluoromethoxy)-1,2,3,4-tetrahydronaphthalen-2-amine hydrochloride]
IC50 (human GlyT1c; [1]): ≤ 10 µM | Ki (human GlyT1c transporter; [2]): ≤ 100 µM

O=C(NC1CCc2ccc(O)cc2C1Cc1ccc(Cl)cc1)OCc1ccccc1 (stereo not shown) [Example 37, Benzyl [1-(4-chlorobenzyl)-7-hydroxy-1,2,3,4-tetrahydronaphthalen-2-yl]carbamate]
IC50 (human GlyT1c; [1]): ≤ 100 µM | Ki (human GlyT1c transporter; [2]): ≤ 10 µM

CC(C)(C)OC(=O)NC1CCc2ccc(CN)cc2C1Cc1ccc(Cl)c(Cl)c1 (stereo not shown) [Example 38, tert-Butyl[7-(aminomethyl)-1-(3,4-dichlorobenzyl)-1,2,3,4-tetrahydronaphthalen-2-yl]carbamate]
IC50 (human GlyT1c; [1]): ≤ 100 µM | Ki (human GlyT1c transporter; [2]): ≤ 100 µM

CCCS(=O)(=O)NCc1ccc2c(c1)C(Cc1ccc(Cl)c(Cl)c1)C(NC(=O)OC(C)(C)C)CC2 (stereo not shown) [Example 39, tert-Butyl[1-(3,4-dichlorobenzyl)-7-{[(propylsulfonyl)amino]methyl}-1,2,3,4-tetrahydronaphthalen-2-yl]carbamate]
IC50 (human GlyT1c; [1]): ≤ 1000 µM | Ki (human GlyT1c transporter; [2]): ≤ 10 µM

NC1CCc2ccc(CNS(=O)(=O)CCCF)cc2C1Cc1ccc(Cl)c(Cl)c1 (stereo not shown) [Example 41, N-{[7-Amino-8-(3,4-dichlorobenzyl)-5,6,7,8-tetrahydronaphthalen-2-yl]methyl}-3-fluoropropane-1-sulfonamide hydrochloride]
IC50 (human GlyT1c; [1]): ≤ 100 µM | Ki (human GlyT1c transporter; [2]): ≤ 10 µM

CCOC(=O)NC1CCc2ccc(OCCNS(=O)(=O)c3cnn(C)c3)cc2C1Cc1cccc(Cl)c1 (stereo not shown) [Example 46, {1-(3-Chloro-benzyl)-7-[2-(1-methyl-1H-pyrazole-4-sulfonylamino)-ethoxy]-1,2,3,4-tetrahydro-naphthalen-2-yl}-carbamic acid ethyl ester]
IC50 (human GlyT1c; [1]): ≤ 1 µM | Ki (human GlyT1c transporter; [2]): ≤ 1 µM

Cn1cc(S(=O)(=O)NCCOc2ccc3c(c2)C(Cc2cccc(Cl)c2)C(N)CC3)cn1 (stereo not shown) [Example 47, 1-Methyl-1H-pyrazole-4-sulfonic acid {2-[7-amino-8-(3-chloro-benzyl)-5,6,7,8-tetrahydronaphthalen-2-yloxy]-ethyl}-amide hydrochloride]
IC50 (human GlyT1c; [1]): ≤ 0.01 µM | Ki (human GlyT1c transporter; [2]): ≤ 0.01 µM

Cn1cnc(S(=O)(=O)NCCOc2ccc3c(c2)C(Cc2cccc(Cl)c2)C(N)CC3)c1 (stereo not shown) [Example 48, 1-Methyl-1H-imidazole-4-sulfonic acid {2-[7-amino-8-(3-chloro-benzyl)-5,6,7,8-tetrahydronaphthalen-2-yloxy]-ethyl}-amide hydrochloride]
IC50 (human GlyT1c; [1]): ≤ 0.01 µM | Ki (human GlyT1c transporter; [2]): ≤ 0.01 µM

CCOC(=O)NC1CCc2ccc(OCCNS(=O)(=O)c3sc(C)nc3C)cc2C1Cc1cccc(Cl)c1 (stereo not shown) [Example 49, {1-(3-Chloro-benzyl)-7-[2-(2,4-dimethyl-thiazole-5-sulfonylamino)-ethoxy]-1,2,3,4-tetrahydro-naphthalen-2-yl}-carbamic acid ethyl ester]
IC50 (human GlyT1c; [1]): ≤ 100 µM | Ki (human GlyT1c transporter; [2]): ≤ 100 µM

CCOC(=O)NC1CCc2ccc(OCCNS(=O)(=O)c3cccs3)cc2C1Cc1cccc(Cl)c1 (stereo not shown) [Example 50, {1-(3-Chloro-benzyl)-7-[2-(thiophene-2-sulfonylamino)-ethoxy]-1,2,3,4-tetrahydronaphthalen-2-yl}-carbamic acid ethyl ester]
IC50 (human GlyT1c; [1]): ≤ 10 µM | Ki (human GlyT1c transporter; [2]): ≤ 1 µM
